13 molecules from patent publication US20260285853A1, “COMPOUNDS AND METHODS FOR MODULATING SPLICING” (REMIX THERAPEUTICS INC., priority 2023, published 2026) can be followed below.

Common to all, as to type: cell-based
Test [1] has as its system MYB mRNA. Kind of test: Gene panel canonical junction qPCR assay, decrease in CJ mRNA, Table 3. As to conditions: decrease in CJ mRNA levels, canonical junction qPCR, gene panel. An outline of the steps: (§1)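 IC50 is the concentration giving 50% response in decrease of the canonical junction transcript, fitted with a 4-parameter logistic equation. Transcripts were quantified by RT-qPCR in A673 or K562 cells after 24 h exposure to compounds dosed up to 10 uM in 3-fold steps.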
(In general: Quantitative PCR measures a nucleic acid by following its amplification.)

Test [2] concerns HTT mRNA. The test is described as above. The following applies: decrease in CJ mRNA levels, canonical junction qPCR, gene panel. An outline of the steps:
as §1

Test [3] relates to HTT mRNA. Kind of test: Splicing RT-qPCR assay (THP), Table 2A. As to conditions: Table 2A, THP; for AC50: HTT alternative junction (AJ) mRNA, read-out: HTT AJ (AC50, increase in alternative junction mRNA); for IC50: HTT canonical junction (CJ) mRNA, read-out: HTT CJ (IC50, decrease in canonical junction mRNA).
Test [4] deals with SH-SY5Y (human neuroblastoma) cells. Kind of test: Cell viability, Cell Titer Glo 2.0 assay. As to conditions: read-out: Viability SHSY5Y.3 GI50. Put shortly:
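Steps: serial DMSO dilution of compound, 1:100 dilution into medium, addition to cells (0.1% DMSO final). Incubate 72 h at 37 °C, 5% CO2. Assay with CellTiter-Glo 2.0 reagent.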
Background: In ATP-based viability assays light output follows the ATP content of the culture.

Test [5] relates to MYB mRNA. Kind of test: Splicing RT-qPCR assay (THP), Table 2A. As to conditions: Table 2A, THP; for AC50: MYB alternative junction (AJ) mRNA, read-out: MYB AJ (AC50, increase in alternative junction mRNA); for IC50: MYB canonical junction (CJ) mRNA, read-out: MYB CJ (IC50, decrease in canonical junction mRNA).

Some results are limits rather than exact numbers.

Regarding `COc1nc2c(C(=O)Nc3cc(F)c4nc(C)cn4c3)ccc(N3CCC(NC4CC4)CC3)c2o1` [Compound 690, 7-[4-(cyclopropylamino)-1-piperidyl]-N-(8-fluoro-2-methyl-imidazo[1,2-a]pyridin-6-yl)-2-methoxy-1,3-benzoxazole-4-carboxamide], the IC50 in the test with MYB mRNA [1], in the test with HTT mRNA [2], with HTT mRNA [3] and with MYB mRNA [5] was below 0.1 µM in each case. Moreover, the results for the half-maximal activity concentration (AC50) in the test with HTT mRNA [3] and with MYB mRNA [5] were 0.1 to 1 µM and below 0.1 µM, respectively. Also, in test [4], the concentration for 50% growth inhibition (GI50) was in the range of 0.1 to 1 µM.
As to `COc1nc2c(N3C[C@H](C)N[C@@H](C)C3)ccc(C(=O)Nc3cc(F)c4nn(C)cc4c3)c2o1` [Compound 691, 4-[(3S,5S)-3,5-dimethylpiperazin-1-yl]-N-(7-fluoro-2-methyl-indazol-5-yl)-2-methoxy-1,3-benzoxazole-7-carboxamide], the half-inhibitory concentration (IC50) is 0.1 to 1 µM with MYB mRNA [1], above 10 µM in the test on HTT mRNA [2], above 10 µM in the test on HTT mRNA [3] and 0.1 to 1 µM in the test with MYB mRNA [5]. Besides, the AC50 is above 10 µM in the test on HTT mRNA [3] and 0.1 to 1 µM in the test with MYB mRNA [5]. Also, the GI50 in test [4] was in the range of 1 to 10 µM.
Consider `CCNC1CCN(c2cc(F)c(C(=O)Nc3cn4ccnc4nc3OC)c3nn(C)cc23)CC1` [Compound 692, 4-[4-(ethylamino)-1-piperidyl]-6-fluoro-N-(7-methoxyimidazo[1,2-a]pyrimidin-6-yl)-2-methyl-indazole-7-carboxamide], for which the concentration for half-maximal inhibition (IC50) in the test with MYB mRNA [1] was below 0.1 µM; in the test with HTT mRNA [2], 1 to 10 µM; with HTT mRNA [3], 1 to 10 µM; in the test with MYB mRNA [5] it was below 0.1 µM. Also, the AC50 with HTT mRNA [3] was 0.1 to 1 µM; in the test on MYB mRNA [5] it was below 0.1 µM. In test [4], the concentration for 50% growth inhibition (GI50) fell in the range of 1 to 10 µM.
In the case of `Cc1cn2cc(NC(=O)c3ccc(N4CCC(NC5CC5)CC4)c4cn(C)nc34)nc2c(CNS(C)(=O)=O)n1` [Compound 694, 4-(4-(cyclopropylamino)piperidin-1-yl)-2-methyl-N-(6-methyl-8-(methylsulfonamidomethyl)imidazo[1,2-a]pyrazin-2-yl)-2H-indazole-7-carboxamide 2,2,2-trifluoroacetate], the half-inhibitory concentration (IC50) in the test with MYB mRNA [1], with HTT mRNA [2], with HTT mRNA [3] and with MYB mRNA [5] was above 10 µM throughout. The half-maximal activity concentration (AC50) in the test on HTT mRNA [3] and with MYB mRNA [5] was above 10 µM each time. Besides, the GI50 in test [4] was above 10 µM.
Consider `COc1cc2c(N3CCC(NC4CC4)CC3)ccc(C(=O)Nc3cc(C)c4nc(C)cn4n3)n2n1` [Compound 695, 4-[4-(cyclopropylamino)-1-piperidyl]-N-(2,8-dimethylimidazo[1,2-b]pyridazin-6-yl)-2-methoxy-pyrazolo[1,5-a]pyridine-7-carboxamide], for which the 50% inhibitory concentration (IC50) in the test on MYB mRNA [1], in the test with HTT mRNA [2], in the test with HTT mRNA [3] and in the test with MYB mRNA [5] was 1 to 10 µM each time. Further, the concentration at half-maximal activity (AC50) with HTT mRNA [3] and in the test on MYB mRNA [5] was 1 to 10 µM in each case. For the same molecule, the GI50 in test [4] lay within 1 to 10 µM.
With `COc1cc2nn(C)cc2cc1NC(=O)c1cc(C)c(N2CCC(NC3CC3)CC2)c2cn(C)nc12` [Compound 696], the IC50 in the test with MYB mRNA [1], in the test on HTT mRNA [2], in the test on HTT mRNA [3] and in the test with MYB mRNA [5] was above 10 µM each time. For the same molecule, the AC50 in the test with HTT mRNA [3] and in the test on MYB mRNA [5] was above 10 µM in each case. Besides, the GI50 in test [4] lay within 1 to 10 µM.
As to `COc1cc2c(N3C[C@H](C)N[C@@H](C)C3)ccc(C(=O)Nc3cc(F)c4nn(C)cc4c3)n2n1` [Compound 697, 4-[(3S,5S)-3,5-dimethylpiperazin-1-yl]-N-(7-fluoro-2-methyl-indazol-5-yl)-2-methoxy-pyrazolo[1,5-a]pyridine-7-carboxamide], the IC50 in the test on MYB mRNA [1] was below 0.1 µM; in the test on HTT mRNA [2], 0.1 to 1 µM; in the test on HTT mRNA [3], 0.1 to 1 µM; in the test on MYB mRNA [5], below 0.1 µM. The AC50 in the test with HTT mRNA [3] and in the test on MYB mRNA [5] was below 0.1 µM in each case. Moreover, the GI50 in test [4] is below 0.1 µM.
As to `COc1cc2c(N3C[C@H](C)N[C@@H](C)C3)ccc(C(=O)Nc3cc4cn(C)nc4cc3OC)n2n1` [Compound 698, 4-[(3S,5S)-3,5-dimethylpiperazin-1-yl]-2-methoxy-N-(6-methoxy-2-methyl-indazol-5-yl) pyrazolo[1,5-a]pyridine-7-carboxamide], the IC50 in the test with MYB mRNA [1] was below 0.1 µM; in the test on HTT mRNA [2], 1 to 10 µM; in the test on HTT mRNA [3], 1 to 10 µM; with MYB mRNA [5] it was below 0.1 µM. Besides, the AC50 is 1 to 10 µM with HTT mRNA [3] and below 0.1 µM with MYB mRNA [5]. The GI50 in test [4] was 0.1 to 1 µM.
Regarding `CNc1nc2c(C(=O)Nc3cc(F)c4nn(C)cc4c3)ccc(N3C[C@H](C)N[C@@H](C)C3)c2s1` [Compound 699, 7-[(3S,5S)-3,5-dimethylpiperazin-1-yl]-N-(7-fluoro-2-methyl-indazol-5-yl)-2-(methylamino)-1,3-benzothiazole-4-carboxamide], the IC50 was below 0.1 µM in the test with MYB mRNA [1], 0.1 to 1 µM in the test on HTT mRNA [2], 0.1 to 1 µM in the test with HTT mRNA [3] and below 0.1 µM in the test with MYB mRNA [5]. Besides, the half-maximal activity concentration (AC50) in the test on HTT mRNA [3] is 0.1 to 1 µM; with MYB mRNA [5], below 0.1 µM. Besides, in test [4], the 50% growth inhibitory concentration (GI50) is below 0.1 µM.
`C[C@H]1CN(c2ccc(C(=O)Nc3cc(F)c4nn(C)cc4c3)c3nc(N)sc23)C[C@H](C)N1` [Compound 700, 2-amino-7-[(3S,5S)-3,5-dimethylpiperazin-1-yl]-N-(7-fluoro-2-methyl-indazol-5-yl)-1,3-benzothiazole-4-carboxamide]: the half-maximal inhibitory concentration (IC50) is below 0.1 µM with MYB mRNA [1], 0.1 to 1 µM in the test on HTT mRNA [2], 0.1 to 1 µM in the test on HTT mRNA [3] and below 0.1 µM in the test on MYB mRNA [5]. Moreover, the figures for the AC50 in the test with HTT mRNA [3] and with MYB mRNA [5] were 0.1 to 1 µM and below 0.1 µM, respectively. The concentration for 50% growth inhibition (GI50) in test [4] fell in the range of 0.1 to 1 µM.
With `CCNC1CCN(c2cc(F)c(C(=O)Nc3cn4ccnc4cc3OC)c3nn(C)cc23)CC1` [Compound 701, 4-[4-(ethylamino)-1-piperidyl]-6-fluoro-N-(7-methoxyimidazo[1,2-a]pyridin-6-yl)-2-methyl-indazole-7-carboxamide], the IC50 with MYB mRNA [1] was 0.1 to 1 µM; in the test on HTT mRNA [2] it was above 10 µM; with HTT mRNA [3], above 10 µM; with MYB mRNA [5], 0.1 to 1 µM. Also, the values for the half-maximal activity concentration (AC50) in the test on HTT mRNA [3] and in the test on MYB mRNA [5] were above 10 µM and 0.1 to 1 µM, respectively. The GI50 in test [4] was above 10 µM.
`Cc1cn2cc(NC(=O)c3ccc(N4CCC(NC5CC5)CC4)c4cn(C)nc34)nc2c(CCS(C)(=O)=O)n1` [Compound 702]: the IC50 in the test with MYB mRNA [1] was 1 to 10 µM; in the test on HTT mRNA [2], above 10 µM; with HTT mRNA [3] it was above 10 µM; in the test on MYB mRNA [5] it was 1 to 10 µM. The figures for the AC50 with HTT mRNA [3] and in the test with MYB mRNA [5] were above 10 µM and 1 to 10 µM, respectively. Moreover, in test [4], the GI50 was above 10 µM.
Take `Cc1cn2cc(NC(=O)c3ccc(N4CCC(NC5CC5)CC4)c4cn(C)nc34)nc2c(CN(C)S(C)(=O)=O)n1` [Compound 703, 4-(4-(cyclopropylamino)piperidin-1-yl)-2-methyl-N-(6-methyl-8-((N-methylmethylsulfonamido)methyl)imidazo[1,2-a]pyrazin-2-yl)-2H-indazole-7-carboxamide 2,2,2-trifluoroacetate]: the half-inhibitory concentration (IC50) with MYB mRNA [1], with HTT mRNA [2], in the test with HTT mRNA [3] and in the test on MYB mRNA [5] was above 10 µM throughout. Also, the AC50 with HTT mRNA [3] and with MYB mRNA [5] was above 10 µM throughout. Also, the GI50 in test [4] was above 10 µM.

Usually IC50 stands for the concentration needed to halve the response being measured. In general, AC50 refers to the concentration at which the activity in the assay is half-maximal. The GI50 is the concentration that inhibits growth by half.
